As usually defined, the IC50 is the concentration that inhibits the measured activity by half.

The assay has as its target T1, human LPAAT-β (Homo sapiens, UniProt O15120).
T1 construct: the full-length human LPAAT-β cDNA was amplified by PCR; poly-histidine tag (N); made in house; host or cells: Sf9 insect cells (baculovirus, pFastBac HTc); the membrane fraction was used as the enzyme
T1 sequence (O15120 24-278): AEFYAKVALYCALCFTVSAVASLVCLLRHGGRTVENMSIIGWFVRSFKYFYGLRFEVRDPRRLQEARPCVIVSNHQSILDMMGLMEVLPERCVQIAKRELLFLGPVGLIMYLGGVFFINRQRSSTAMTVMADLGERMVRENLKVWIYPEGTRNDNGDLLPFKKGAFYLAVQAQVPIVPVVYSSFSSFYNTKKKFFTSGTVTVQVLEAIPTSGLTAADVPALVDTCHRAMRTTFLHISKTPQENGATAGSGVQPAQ
The assay can be described thus: LPAAT-β cell-free assay. The assay is classed as biochemical. Particulars: Sf9 cell membrane overexpressing recombinant LPAAT-β. The source says: For the construction of Baculovirus expression vectors, the full-length human LPAAT-β cDNA was amplified by PCR from the DNA template pCE9.LPAAT-β (West et al., DNA Cell Bid. 16.691-701 (1997)) using the primers 5′-[…] […] […] […]-3′ (olpb1F; SEQ ID NO:1) and 5′-[…] […] […]-3′ (olpb1R; SEQ ID NO:2). The ˜870 bp fragment generated was reamplified by PCR using the primers 5′ […] […] […] […] ATC-3′ (olpb2F; SEQ ID NO:3) and 5′-[…] […] […]-3′ (olpb1R; SEQ ID NO:2). The ˜890 bp fragment generated was then cleaved with Sal I and Xba I for insertion into pFastBac™ HTc vector (Life Technologies, Gaithersberg, M.d.) between the Sal I and Xba I sites for the generation of the plasmid pFB.LPAAT-β. This plasmid was then transformed into E. coli DH10Bac™ (Life Technologies, Gaithersberg, M.d.) for the generation of recombinant Bacmid DNA for transfection in HighFive (Invitrogen, San Diego, Calif.) or SF9 insect cells for the production of recombinant Baculovirus stocks using the protocol described in the Bac-to-Bac® Baculovirus Expression System (Life Technologies, Gaithersberg, M.d.), a eukaryotic expression system for generating recombinant baculovirus through site-specific transposition in E. coli. Viral stocks harvested from the transfected cells can then be used to infect fresh insect cells for the subsequence expression of LPAAT-β fusion protein with a poly-histidine tag and a myc-epitope near its N-terminus. The membrane fraction from these Sf9 cells would be the source of LPAAT enzyme.
For the preparation of membranes from Sf9 Cells, all steps are performed on ice or at 4° C. Sf9 cell pellets (˜10^8 cells) were thawed and resuspended in 1-2 ml of buffer A (20 mM Hepes, pH 7.5, 1 mM DTT, 1 mM EDTA, 20% w/v glycerol, 1 mM Benzamidine, 1 μg/ml soybean trypsin inhibitor (SBTI), 1 μug/ml pepstatin A) w/o DTT but with 1 mM Pefabloc. The cells were lysed by sonication using a Branson Sonifier at output=2, duty cycle=2, 10 pulses each at 10 s. with the tip of small sonicator probe submerged but not touching the walls. DTT was then added to 1 mM from a 1 M stock. The samples were centrifuged at 1500 rpm for 5 min. The low speed supernatant was saved and centrifuged (TLA 100.3 rotor, polycarbonate tubes, 2 ml/tube or 1.5 ml/tube minimum) at 100000×g for 1 hr. The high speed pellet was resuspend in Buffer A with a probe sonicator (10 pulses @ output #2 and duty cycle 20%) as a source of LPAAT enzyme.
LPAAT-β catalyzes the transfer of an acyl group from a donor such as acyl-CoA to LPA. The transfer of the acyl group from acyl-CoA to LPA leads to the release of free CoA, which can be reacted with the thiol reagent, 5,5′-dithiobis(2-nitrobenzoic acid) (DTNB). The reaction between DTNB and the free sulfhydryl group from CoA generates a yellow-colored product, 3-carboxylato-4-nitrothiophenolate (CNP), that absorbs at 413 nm. LPAAT-β derived from Sf9 cell membrane overexpressing LPAAT-β were resuspended in HEPES saline buffer (20 mM HEPES pH 7.5, 150 mM NaCl), 1 mg/ml BSA and 72 μl aliquots were distributed into 96-well microtiter plates. 8 μl of compound of interest at 200 μM dissolved in 100% DMSO was added into each well. […] of 1 mM 18:1-CoA and 1 mM sn-1-18:1 lysoPA was then added to each well to initiate the reaction and allowed to run at room temperature for 25 min. 100 μl of 1 mM DTNB in 100% ethanol was then added to each well to quench the reaction and for color development. The absorbance at 405 nm, measured using a spectrophotometer plate reader, is proportional to the activity of LPAAT-2 in the sample. This colorimetric assay was used for the high throughput screening of LPAAT inhibitors.
The radiometric assay was carried out in Sf9 cell membrane overexpressing LPAAT-β resuspended in HEPES-saline buffer, pH 7.5, 1 mg/ml BSA, 1 mM EDTA and 200 μM [^14C]18:1-CoA and 200 μM sn-1-18:1 lysoPA.
Take `COc1ccc(Cl)cc1-c1cc(Nc2ccc(C)cc2)nc(N)n1` [Example 1, 6-(5-Chloro-2-methoxy-phenyl)-N*4*-p-tolyl-pyrimidine-2,4-diamine]: the IC50 is 120 nM.
As to `COc1ccc(Cl)cc1-c1cc(Nc2ccc(Cl)cc2)nc(N)n1` [Example 2, 6-(5-Chloro-2-methoxy-phenyl)-N*4*-(4-chloro-phenyl)-pyrimidine-2,4-diamine], the IC50 stood at 54 nM.
For the compound `COc1ccc(Cl)cc1-c1cc(Nc2ccc3cn[nH]c3c2)nc(N)n1` [Example 3, 6-(5-Chloro-2-methoxy-phenyl)-N*4*-(1H-indazol-6-yl)-pyrimidine-2,4-diamine], the 50% inhibitory concentration (IC50) is 80 nM.
The figure for `COc1ccc(Cl)cc1-c1cc(Nc2ccc(C(F)(F)F)cc2)nc(N)n1` [Example 4, 6-(5-Chloro-2-methoxy-phenyl)-N*4*-(4-trifluoromethylphenyl)-pyrimidine-2,4-diamine] is 88 nM.
The result for `COc1ccc(Cl)cc1-c1cc(Nc2ccc(Br)cc2)nc(N)n1` [Example 5, N*4*-(4-Bromo-phenyl)-6-(5-chloro-2-methoxy-phenyl)-pyrimidine-2,4-diamine] reads 29 nM.
The result for `COc1ccc(Cl)cc1-c1cc(Nc2ccc(O)cc2)nc(N)n1` [Example 6, 4-[2-Amino-6-(5-chloro-2-methoxy-phenyl)-pyrimidin-4-ylamino]-phenol] reads 450 nM.
Consider `COc1ccc(Nc2cc(-c3cc(Cl)ccc3OC)nc(N)n2)cc1` [Example 7, 6-(5-Chloro-2-methoxy-phenyl)-N*4*-(4-methoxy-phenyl)-pyrimidine-2,4-diamine], for which the IC50 turned out to be 410 nM.
Turning to `COc1ccc(Cl)cc1-c1cc(Nc2ccc3ncsc3c2)nc(N)n1` [Example 8, N*4*-Benzothiazol-6-yl-6-(5-chloro-2-methoxy-phenyl)-pyrimidine-2,4-diamine], the 50% inhibitory concentration (IC50) is 270 nM.
The figure for `COC(=O)c1ccc(Nc2cc(-c3cc(Cl)ccc3OC)nc(N)n2)cc1` [Example 9, 4-[2-Amino-6-(5-chloro-2-methoxy-phenyl)-pyrimidin-4-ylamino]-benzoic acid methyl ester] is 600 nM; for `COc1ccc(Cl)cc1-c1cc(Nc2ccc(CO)cc2)nc(N)n1` [Example 10, {4-[2-Amino-6-(5-chloro-2-methoxy-phenyl)-pyrimidin4-ylamino]-phenyl}-methanol] it is 120 nM; for `COc1ccc(Cl)cc1-c1cc(Nc2ccc([N+](=O)[O-])cc2)nc(N)n1` [Example 11, 6-(5-Chloro-2-methoxy-phenyl)-N*4*-(4-nitro-phenyl)-pyrimidine-2,4-diamine] it is 14 nM.
The figure for `COc1ccc(Cl)cc1-c1cc(Nc2ccc(N)cc2)nc(N)n1` [Example 12, N*4*-(4-Amino-phenyl)-6-(5-chloro-2-methoxy-phenyl)-pyrimidine-2,4-diamine] is 95 nM; for `COc1ccc(Cl)cc1-c1cc(Nc2ccc3c(c2)OCO3)nc(N)n1` [Example 13, N*4*-Benzo [1,3]dioxol-5-yl-6-(5-chloro-2-methoxy-phenyl)-pyrimidine-2,4-diamine] it is 100 nM; for `Nc1nc(Nc2ccc(Br)cc2)cc(-c2cc(Cl)ccc2Cl)n1` [Example 14, N*4*-(4-Bromo-phenyl)-6-(2,5-dichloro-phenyl)-pyrimidine-2,4-diamine] it is 26 nM.
The figure for `Cc1ccc(Nc2cc(-c3cc(Cl)ccc3Cl)nc(N)n2)cc1` [Example 15, 6-(2,5-Dichloro-phenyl)-N*4*-p-tolyl-pyrimidine-2,4-diamine] is 50 nM; for `COc1ccc(Nc2cc(-c3cc(Cl)ccc3Cl)nc(N)n2)cc1` [Example 16, 6-(2,5-Dichloro-phenyl)-N*4*-(4-methoxy-phenyl)-pyrimidine-2,4-diamine] it is 120 nM; for `Nc1nc(Nc2ccc(O)cc2)cc(-c2cc(Cl)ccc2Cl)n1` [Example 17, 4-[2-Amino-6-(2,5-dichloro-phenyl)-pyrimidin-4-ylamino]-phenol] it is 240 nM.
As for `Nc1nc(Nc2ccc(C(F)(F)F)cc2)cc(-c2cc(Cl)ccc2Cl)n1` [Example 18, 6-(2,5-Dichloro-phenyl)-N*4*-(4-trifuoromethyl-phenyl)-pyrimidine-2,4-diamine], the IC50 amounted to 82 nM.
The result for `Nc1nc(Nc2ccc3cn[nH]c3c2)cc(-c2cc(Cl)ccc2Cl)n1` [Example 19, 6-(2,5-Dichloro-phenyl)-N*4*-(1H-indazol-6-yl)-pyrimidine-2,4-diamine] reads 27 nM; that for `Nc1nc(Nc2ccc(Cl)cc2)cc(-c2cc(Cl)ccc2Cl)n1` [Example 20, N*4*-(4-Chloro-phenyl)-6-(2,5-dichloro-phenyl)-pyrimidine-2,4-diamine], 20 nM.
The result for `COC(=O)c1ccc(Nc2cc(-c3cc(Cl)ccc3Cl)nc(N)n2)cc1` [Example 21, 4-[2-Amino-6-(2,5-dichloro-phenyl)-pyrimidin-4-yl-amino]-benzoic acid methyl ester] reads 330 nM; that for `Nc1nc(Nc2ccc(CO)cc2)cc(-c2cc(Cl)ccc2Cl)n1` [Example 22, {4-[2-Amino-6-(2,5-dichloro-phenyl)-pyrimidin-4-yl-amino]-phenyl}-methanol], 60 nM; that for `Nc1nc(Nc2ccc3c(c2)OCO3)cc(-c2cc(Cl)ccc2Cl)n1` [Example 23, N*4*-Benzo[1,3]dioxol-5-yl-6-(2,5-dichloro-phenyl)-pyrimidine-2,4-diamine], 95 nM.
The result for `N#Cc1ccc(Nc2cc(-c3cc(Cl)ccc3Cl)nc(N)n2)cc1` [Example 24, 4-[2-Amino-6-(2,5-dichloro-phenyl)-pyrimidin-4-ylamino]-benzonitrile] reads 29 nM.
On to `Nc1nc(Nc2ccc([N+](=O)[O-])cc2)cc(-c2cc(Cl)ccc2Cl)n1` [Example 25, 6-(2,5-Dichloro-phenyl)-N*4*-(4-nitro-phenyl)-pyrimidine-2,4-diamine], for which the 50% inhibitory concentration (IC50) came out at 9 nM.
The figure for `Cc1ccc(Nc2cc(-c3cc(Cl)ccc3C)nc(N)n2)cc1` [Example 26, 6-(5-Chloro-2-methyl-phenyl)-N*4*-p-tolyl-pyrimidine-2,4-diamine] is 94 nM; for `Cc1ccc(Cl)cc1-c1cc(Nc2ccc(Cl)cc2)nc(N)n1` [Example 27, 6-(5-Chloro-2-methyl-phenyl)-N*4*-(4-chloro-phenyl)-pyrimidine-2,4-diamine] it is 28 nM; for `COc1ccc(Nc2cc(-c3cc(Cl)ccc3C)nc(N)n2)cc1` [Example 28, 6-(5-Chloro-2-methyl-phenyl)-N*4*-(4-methoxy-phenyl)-pyrimidine-2,4-diamine] it is 200 nM.
The figure for `Cc1ccc(Cl)cc1-c1cc(Nc2ccc(C(F)(F)F)cc2)nc(N)n1` [Example 29, 6-(5-Chloro-2-methyl-phenyl)-N*4*-(4-trifluoromethyl-phenyl)-pyrimidine-2,4-diamine] is 134 nM.

These data come from patent US7419984B2, “Pyrimidines and uses thereof” (Cell Therapeutics, Inc., priority 2002, dated 2008).
